The values below come from article PMC4686831, “Identification of an allosteric binding site for RORγt inhibition” (Nature Communications, 2015).

One data set concerns the target T1, human RORγt LBD (Homo sapiens, UniProt P51449).
T1 construct: The human RORγt LBD used for the HTRF assay; made in house; host or cells: Escherichia coli BL21(DE3)
Briefly: HTRF / TR-FRET cofactor peptide recruitment assay. It is filed as biochemical. As to conditions: Fig. 2a. The method, then:
The human RORγt LBD used for the HTRF assay was expressed as a His6-tag fusion protein from the pET15b expression vector in Escherichia coli BL21(DE3) cells. Cells transformed with this vector were grown in 2 × YT medium supplemented with ampicillin until an OD600=0.7 was reached. Protein expression was then induced with 0.1 mM isopropyl-b-d-thiogalactoside (IPTG). After incubation for 16 h at 16 °C, cell cultures were collected by centrifugation. The cells were lysed via sonication and the protein was purified via Ni^2+-affinity column chromatography.
The homogeneous TR-FRET assays were performed in triplicate with 20 nM His6-RORγt and 100 nM biotin labelled cofactor peptide. […] Assay buffer contained 100 mM HEPES (pH 7.5), 100 mM NaCl, 5 mM dithiothreitol (DTT) and 0.1% bovine serum albumin. The plates (white 384-well plates Greiner Bio-One) were incubated for 2 h at 4 °C before the FRET ratio was measured in a Tecan Infinite F500 plate reader. The data were analysed using Origin software.
Background: TR-FRET usually uses a lanthanide donor and a delayed reading to cut background.

The test system of data set [1] is adiponectin gene expression. Nature of the data set: Adiponectin gene expression in MSCs. As to conditions: read-out: IC50, inhibition of adiponectin gene expression.
Data set [2] concerns Human mesenchymal stem cells (MSCs). Nature of the data set: Adipogenesis of human mesenchymal stem cells (PPARγ dependent). The conditions noted are these: read-out: IC50, inhibition of adipogenesis.
Data set [3] deals with IL17a mRNA expression in EL4 cells. Nature of the data set: Quantitative IL17a RT-PCR in EL4 cells. It is filed as cell-based, mouse. As to conditions: 10 μM, 24 h, vs DMSO, normalized to GAPDH. The method, then:
EL4 cells (Sigma-Aldrich) were grown in DMEM (Gibco). At 24 h after the cells were seeded onto a 12-well plate, the cells were treated with ligands 1–3 (from 10 mM stock in DMSO) or DMSO. After 24 h, the cells were collected and RNA was isolated using a RNeasy Plus Micro Kit (Qiagen) and reverse transcribed using the iScrip cDNA biosynthesis kit (Bio-Rad). Quantitative RT–PCR was performed to analyse mRNA levels of mouse IL17a levels using SYBR green technology (Bio-Rad) on a CFX Real-Time System (Bio-Rad). Primer sequences used for IL17a:[45] Fw: 5′-[…]-3′, Rev: 5′-[…]-3′ and Gapdh: Fw: 5′-[…]-3′, Rev: 5′-[…]-3′. The level of IL17a mRNA expression was normalized to that of Gapdh expression. All data are expressed as the mean±s.e.m. (n=6). Statistical analysis was performed using an one-way analysis of variance comparing against the DMSO control following Dunnett post hoc test.

For data set [4], the system named is IL-17 production in human PBMCs. Nature of the data set: PBMC Th17 polarization and IL-17 production assay. It is filed as cell-based. As to conditions: 96 h, 4 days, mean±s.d., read-out: hPBMC IL17A IC50. The method, then: Test compounds were prepared as 10 mM stocks in DMSO and serially diluted 1:3 to provide an eight-concentration titration. […] Stimulatory cytokines were added to final concentrations of 25 ng ml^−1 IL-1B, 10 ng ml^−1 IL-23, 0.5 ng ml^−1 IL-2 and 10 ng ml^−1 IL-6 (all cytokines from R&D Systems). In addition, T-Activator CD3/28 Dynabeads (Invitrogen) were added to a concentration of 100,000 beads per ml. The stimulated cells were immediately dispensed into the assay plate containing serially diluted compound at a volume of 200 μl cells per well. Cell plates were then incubated at 37 °C and 5% CO2 for 4 days. Culture media (100 μl) was collected from each well and IL-17 expression was measured by enzyme-linked immunosorbent assay (R&D Systems) according to the manufacturer's instructions. Cell viability was assessed by the addition of 100 μl of CellTiter-Glo (Promega) to each well of the cell assay plate followed by luminescence detection on an Envision plate reader (PerkinElmer).

The target of a further data set is GR (Homo sapiens, UniProt P04150). Briefly: Receptor reporter assay selectivity panel: GR. A general note: In a reporter assay the amount or activity of a reporter protein is the signal.
The next data set deals with MR (Homo sapiens, UniProt P08235). Nature of the data set: Receptor reporter assay selectivity panel: MR.
Sequence of MR (P08235 whole entry): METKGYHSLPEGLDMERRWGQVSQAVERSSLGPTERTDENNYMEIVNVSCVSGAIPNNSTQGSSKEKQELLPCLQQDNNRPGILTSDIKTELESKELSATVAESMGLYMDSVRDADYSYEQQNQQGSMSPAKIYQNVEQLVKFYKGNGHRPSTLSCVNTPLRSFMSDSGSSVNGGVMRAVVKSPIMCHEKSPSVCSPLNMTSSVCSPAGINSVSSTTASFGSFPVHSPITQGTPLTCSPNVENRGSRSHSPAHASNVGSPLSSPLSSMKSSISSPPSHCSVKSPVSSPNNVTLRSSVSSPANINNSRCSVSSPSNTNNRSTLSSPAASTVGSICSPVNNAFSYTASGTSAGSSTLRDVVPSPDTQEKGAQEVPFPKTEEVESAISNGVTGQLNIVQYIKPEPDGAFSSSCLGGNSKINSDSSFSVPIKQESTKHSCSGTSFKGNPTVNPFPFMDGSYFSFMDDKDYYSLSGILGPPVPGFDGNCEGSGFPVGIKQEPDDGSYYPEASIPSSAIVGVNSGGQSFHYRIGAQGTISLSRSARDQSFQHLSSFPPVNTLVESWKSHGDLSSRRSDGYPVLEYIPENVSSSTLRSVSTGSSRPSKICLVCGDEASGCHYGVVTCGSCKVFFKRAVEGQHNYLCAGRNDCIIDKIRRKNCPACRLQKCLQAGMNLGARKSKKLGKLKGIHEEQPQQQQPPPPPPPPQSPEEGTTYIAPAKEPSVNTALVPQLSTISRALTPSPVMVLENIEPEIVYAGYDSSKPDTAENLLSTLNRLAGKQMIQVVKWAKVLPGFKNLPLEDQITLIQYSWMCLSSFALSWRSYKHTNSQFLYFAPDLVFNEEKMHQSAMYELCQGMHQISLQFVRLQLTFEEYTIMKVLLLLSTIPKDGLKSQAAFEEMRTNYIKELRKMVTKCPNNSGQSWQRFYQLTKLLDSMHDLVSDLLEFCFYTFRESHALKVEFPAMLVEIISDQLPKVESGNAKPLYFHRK
The next data set has as its target PR (Homo sapiens, UniProt P06401). Nature of the data set: Receptor reporter assay selectivity panel: PR.
A further data set has as its target AhR (Homo sapiens, UniProt P35869). Nature of the data set: Receptor reporter assay selectivity panel: AhR.
A further data set concerns the target ERa (Homo sapiens, UniProt P03372). Briefly: Receptor reporter assay selectivity panel: ERa.
A further data set addresses ERb (Homo sapiens, UniProt Q92731). Briefly: Receptor reporter assay selectivity panel: ERb.
Another data set has as its target FXR (Homo sapiens, UniProt Q96RI1). Briefly: Receptor reporter assay selectivity panel: FXR.
For a further data set, the target named is T2, PXR (Homo sapiens, UniProt O75469).
T2 sequence (O75469 146-434 limits assumed): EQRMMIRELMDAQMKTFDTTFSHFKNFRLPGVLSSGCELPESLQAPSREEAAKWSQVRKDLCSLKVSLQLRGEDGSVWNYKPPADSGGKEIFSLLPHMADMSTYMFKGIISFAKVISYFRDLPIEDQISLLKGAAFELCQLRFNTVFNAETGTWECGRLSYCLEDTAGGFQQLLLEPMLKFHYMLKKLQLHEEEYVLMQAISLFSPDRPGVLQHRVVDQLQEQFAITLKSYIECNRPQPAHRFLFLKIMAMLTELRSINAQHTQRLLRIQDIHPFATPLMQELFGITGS
Nature of the data set: Receptor reporter assay selectivity panel: PXR.

For another data set, the target named is TRa (Homo sapiens, UniProt P10827). Briefly: Receptor reporter assay selectivity panel: TRa.
For another data set, the target named is TRb (Homo sapiens, UniProt P10828). Briefly: Receptor reporter assay selectivity panel: TRb.
Sequence of TRb (P10828 217-461 limits assumed): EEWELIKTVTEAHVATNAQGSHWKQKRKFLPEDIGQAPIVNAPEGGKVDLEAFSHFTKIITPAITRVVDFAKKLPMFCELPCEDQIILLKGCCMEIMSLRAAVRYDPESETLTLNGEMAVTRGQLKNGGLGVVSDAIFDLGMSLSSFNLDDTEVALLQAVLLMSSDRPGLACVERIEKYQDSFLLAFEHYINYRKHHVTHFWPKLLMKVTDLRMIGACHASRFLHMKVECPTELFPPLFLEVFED
The target in a further data set is VDR (Homo sapiens, UniProt P11473). Nature of the data set: Receptor reporter assay selectivity panel: VDR.
Sequence of VDR (P11473 127-427 limits assumed): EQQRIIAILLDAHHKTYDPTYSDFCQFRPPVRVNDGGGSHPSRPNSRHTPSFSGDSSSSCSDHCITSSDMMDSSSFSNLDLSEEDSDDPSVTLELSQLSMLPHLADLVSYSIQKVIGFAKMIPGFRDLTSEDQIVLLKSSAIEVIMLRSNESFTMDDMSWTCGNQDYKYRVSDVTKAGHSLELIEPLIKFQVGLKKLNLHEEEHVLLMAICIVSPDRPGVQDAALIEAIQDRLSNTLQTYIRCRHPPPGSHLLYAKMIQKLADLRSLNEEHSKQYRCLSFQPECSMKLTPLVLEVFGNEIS
The target in the next data set is CAR1 (Homo sapiens, UniProt Q14994). Nature of the data set: Receptor reporter assay selectivity panel: CAR1.
The next data set concerns the target CAR2 (Homo sapiens, UniProt Q14994). Nature of the data set: Receptor reporter assay selectivity panel: CAR2.
The next data set has as its target CAR3 (Homo sapiens, UniProt Q14994). Nature of the data set: Receptor reporter assay selectivity panel: CAR3.
The target in a further data set is LXRa (Homo sapiens, UniProt Q13133). Briefly: Receptor reporter assay selectivity panel: LXRa.
In a further data set the target is LXRb (Homo sapiens, UniProt P55055). Briefly: Receptor reporter assay selectivity panel: LXRb.
Sequence of LXRb (P55055 222-460 limits assumed): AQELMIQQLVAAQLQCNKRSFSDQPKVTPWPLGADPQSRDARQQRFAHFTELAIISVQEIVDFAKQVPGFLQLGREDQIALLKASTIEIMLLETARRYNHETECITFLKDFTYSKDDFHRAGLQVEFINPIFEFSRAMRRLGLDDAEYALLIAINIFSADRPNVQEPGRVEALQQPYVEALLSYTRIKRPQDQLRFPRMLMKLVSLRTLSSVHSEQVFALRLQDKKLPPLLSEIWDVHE
The target in the next data set is RARa (Homo sapiens, UniProt P10276). Nature of the data set: Receptor reporter assay selectivity panel: RARa.
The next data set deals with RARb (Homo sapiens, UniProt P10826). Briefly: Receptor reporter assay selectivity panel: RARb.
Sequence of RARb (P10826 183-417 limits assumed): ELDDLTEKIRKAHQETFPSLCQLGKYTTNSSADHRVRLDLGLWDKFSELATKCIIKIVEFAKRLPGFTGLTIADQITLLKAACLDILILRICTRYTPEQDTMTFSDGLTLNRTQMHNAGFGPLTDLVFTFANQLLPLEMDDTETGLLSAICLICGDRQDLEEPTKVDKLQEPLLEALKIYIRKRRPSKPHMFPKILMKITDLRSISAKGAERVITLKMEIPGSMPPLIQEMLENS
The target of the next data set is T3, RARg (Homo sapiens, UniProt P13631).
T3 sequence (P13631 185-419 limits assumed): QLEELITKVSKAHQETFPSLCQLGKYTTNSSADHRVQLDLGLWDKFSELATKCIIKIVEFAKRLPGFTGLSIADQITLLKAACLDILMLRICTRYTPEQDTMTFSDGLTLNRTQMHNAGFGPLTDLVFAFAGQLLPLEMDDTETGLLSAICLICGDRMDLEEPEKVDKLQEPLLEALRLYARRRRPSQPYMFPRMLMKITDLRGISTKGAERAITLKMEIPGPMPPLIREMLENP
Nature of the data set: Receptor reporter assay selectivity panel: RARg.

A further data set deals with RXRa (Homo sapiens, UniProt P19793). Briefly: Receptor reporter assay selectivity panel: RXRa.
Sequence of RXRa (P19793 227-462 limits assumed): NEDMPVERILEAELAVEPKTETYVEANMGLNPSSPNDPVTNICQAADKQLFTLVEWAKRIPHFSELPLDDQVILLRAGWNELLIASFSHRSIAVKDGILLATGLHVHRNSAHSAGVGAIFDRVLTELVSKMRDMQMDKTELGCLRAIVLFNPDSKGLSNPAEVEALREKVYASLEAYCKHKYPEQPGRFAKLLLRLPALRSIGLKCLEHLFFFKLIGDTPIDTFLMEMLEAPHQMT
The target in the next data set is RXRb (Homo sapiens, UniProt P28702). Briefly: Receptor reporter assay selectivity panel: RXRb.
Sequence of RXRb (P28702 296-533 limits assumed): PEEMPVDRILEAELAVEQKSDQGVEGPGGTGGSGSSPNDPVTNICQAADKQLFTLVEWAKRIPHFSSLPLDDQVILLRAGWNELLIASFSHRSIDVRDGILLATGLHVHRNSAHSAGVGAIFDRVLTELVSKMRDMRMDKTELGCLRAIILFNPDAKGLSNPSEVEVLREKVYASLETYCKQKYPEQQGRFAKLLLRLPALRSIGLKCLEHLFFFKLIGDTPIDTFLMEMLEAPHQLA
Another data set has as its target RXRg (Homo sapiens, UniProt P48443). Nature of the data set: Receptor reporter assay selectivity panel: RXRg.
The target of a further data set is PPARa (Homo sapiens, UniProt Q07869). Nature of the data set: Receptor reporter assay selectivity panel: PPARa.
Sequence of PPARa (Q07869 200-468 limits assumed): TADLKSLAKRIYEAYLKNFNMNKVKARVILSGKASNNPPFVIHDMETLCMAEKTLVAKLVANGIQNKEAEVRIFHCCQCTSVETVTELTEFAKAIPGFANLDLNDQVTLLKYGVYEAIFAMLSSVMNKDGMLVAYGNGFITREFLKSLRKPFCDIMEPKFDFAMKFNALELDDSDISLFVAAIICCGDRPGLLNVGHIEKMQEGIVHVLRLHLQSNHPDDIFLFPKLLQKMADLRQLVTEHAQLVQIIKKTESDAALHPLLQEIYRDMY
The target in the next data set is PPARd (Homo sapiens, UniProt Q03181). Nature of the data set: Receptor reporter assay selectivity panel: PPARd.
Sequence of PPARd (Q03181 171-441 limits assumed): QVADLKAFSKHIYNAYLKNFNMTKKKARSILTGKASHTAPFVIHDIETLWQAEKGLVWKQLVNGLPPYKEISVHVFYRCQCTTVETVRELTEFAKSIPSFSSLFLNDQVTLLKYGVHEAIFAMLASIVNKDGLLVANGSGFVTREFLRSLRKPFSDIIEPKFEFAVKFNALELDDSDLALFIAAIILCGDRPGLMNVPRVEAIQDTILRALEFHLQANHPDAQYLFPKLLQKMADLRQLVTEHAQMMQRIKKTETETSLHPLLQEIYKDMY
In a further data set the target is PPARg (Homo sapiens, UniProt P37231). Nature of the data set: Receptor reporter assay selectivity panel: PPARg.
Sequence of PPARg (P37231 232-505 limits assumed): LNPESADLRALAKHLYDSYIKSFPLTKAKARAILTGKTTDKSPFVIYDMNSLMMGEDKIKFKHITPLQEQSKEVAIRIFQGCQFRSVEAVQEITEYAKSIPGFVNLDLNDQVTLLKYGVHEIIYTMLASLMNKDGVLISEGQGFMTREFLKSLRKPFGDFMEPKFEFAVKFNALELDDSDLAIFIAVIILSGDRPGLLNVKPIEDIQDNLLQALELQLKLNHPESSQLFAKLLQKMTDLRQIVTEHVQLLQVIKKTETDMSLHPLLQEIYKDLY
The test system of data set [5] is CD36 and FABP4 gene expression in MSCs. The arrangement: dose or concentration left out as unconfirmed. As to conditions: MRL-299, data not shown.
In a further data set the target is AR (Homo sapiens, UniProt P10275). Nature of the data set: Receptor reporter assay selectivity panel (Indigo Bioscience): AR.

Where two headings read alike, the source gives them in different places. Bounds are passed on as bounds.

Sequence of ERb (Q92731 whole entry): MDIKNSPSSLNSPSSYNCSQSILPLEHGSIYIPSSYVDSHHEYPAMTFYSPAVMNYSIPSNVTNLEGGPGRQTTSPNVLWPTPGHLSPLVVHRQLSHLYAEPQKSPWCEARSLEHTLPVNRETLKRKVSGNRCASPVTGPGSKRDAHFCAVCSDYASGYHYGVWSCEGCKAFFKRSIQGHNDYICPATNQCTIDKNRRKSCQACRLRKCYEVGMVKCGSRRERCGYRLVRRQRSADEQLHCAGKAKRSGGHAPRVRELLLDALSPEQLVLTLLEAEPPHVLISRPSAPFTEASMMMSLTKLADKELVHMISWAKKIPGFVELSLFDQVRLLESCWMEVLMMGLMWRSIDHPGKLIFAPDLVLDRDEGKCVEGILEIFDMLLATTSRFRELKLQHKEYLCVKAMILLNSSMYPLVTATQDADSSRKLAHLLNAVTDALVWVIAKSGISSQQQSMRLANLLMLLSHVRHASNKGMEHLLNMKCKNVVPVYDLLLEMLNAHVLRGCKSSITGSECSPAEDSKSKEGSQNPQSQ
Sequence of PR (P06401 whole entry): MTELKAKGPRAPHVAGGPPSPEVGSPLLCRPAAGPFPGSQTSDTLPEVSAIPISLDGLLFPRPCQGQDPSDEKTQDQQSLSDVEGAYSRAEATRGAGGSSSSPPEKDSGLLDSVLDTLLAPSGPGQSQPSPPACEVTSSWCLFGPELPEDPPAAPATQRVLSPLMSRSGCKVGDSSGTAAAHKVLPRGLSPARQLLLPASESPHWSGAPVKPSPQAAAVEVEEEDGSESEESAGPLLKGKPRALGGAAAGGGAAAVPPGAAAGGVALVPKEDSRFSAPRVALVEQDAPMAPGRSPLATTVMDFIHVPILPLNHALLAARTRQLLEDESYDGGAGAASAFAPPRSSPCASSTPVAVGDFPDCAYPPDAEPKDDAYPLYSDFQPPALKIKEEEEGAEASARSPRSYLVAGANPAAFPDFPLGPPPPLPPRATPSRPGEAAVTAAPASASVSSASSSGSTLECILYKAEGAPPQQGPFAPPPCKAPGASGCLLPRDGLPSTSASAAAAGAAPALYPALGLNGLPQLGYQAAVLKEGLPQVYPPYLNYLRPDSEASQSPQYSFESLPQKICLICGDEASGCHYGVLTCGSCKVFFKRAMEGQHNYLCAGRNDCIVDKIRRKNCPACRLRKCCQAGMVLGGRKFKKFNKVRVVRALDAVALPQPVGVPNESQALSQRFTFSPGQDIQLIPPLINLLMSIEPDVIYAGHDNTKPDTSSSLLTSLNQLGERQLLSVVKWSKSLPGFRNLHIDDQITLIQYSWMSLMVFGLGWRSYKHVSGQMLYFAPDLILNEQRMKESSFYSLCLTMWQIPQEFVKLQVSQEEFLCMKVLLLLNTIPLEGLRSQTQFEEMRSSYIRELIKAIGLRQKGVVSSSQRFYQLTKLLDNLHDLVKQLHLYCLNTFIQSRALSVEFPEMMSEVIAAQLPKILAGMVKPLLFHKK
Sequence of AhR (P35869 275-386 limits assumed): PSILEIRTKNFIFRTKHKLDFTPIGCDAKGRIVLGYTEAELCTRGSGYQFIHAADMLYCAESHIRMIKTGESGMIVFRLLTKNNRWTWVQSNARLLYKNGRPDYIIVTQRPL
Experimental for AhR: (§1) * Receptor Reporter Assay Selectivity Panel- Assays were performed by Indigo Bioscience (State
(§2) College, PA) according to their established protocols. The AR, ER, GR, MR, and PR assays utilize full
(§3) length receptor constructs whereas all others are chimeric with the GAL4 DNA binding domain.
Experimental for CAR1: as §1, §2, §3
Experimental for CAR2: as §1, §2, §3
Experimental for CAR3: as §1, §2, §3
Experimental for ERa: as §1, §2, §3
Experimental for ERb: as §1, §2, §3
Experimental for FXR: as §1, §2, §3
Experimental for LXRa: as §1, §2, §3
Experimental for LXRb: as §1, §2, §3
Experimental for PPARa: as §1, §2, §3
Experimental for PPARd: as §1, §2, §3
Experimental for PPARg: as §1, §2, §3
Experimental for PXR: as §1, §2, §3
Experimental for RARa: as §1, §2, §3
Experimental for RARb: as §1, §2, §3
Experimental for RARg: as §1, §2, §3
Experimental for RXRa: as §1, §2, §3
Experimental for RXRb: as §1, §2, §3
Experimental for RXRg: as §1, §2, §3
Experimental for TRa: as §1, §2, §3
Experimental for TRb: as §1, §2, §3
Experimental for VDR: as §1, §2, §3

Take `CC(C)CCC[C@@H](C)[C@H]1CC[C@H]2[C@@H]3CC=C4C[C@@H](O)CC[C@]4(C)[C@H]3CC[C@]12C` [Cholesterol, cholesterol, reference compound]: the “effect on interaction of RORγt-LBD with cofactor peptide” value on human RORγt LBD is on record as “weak activator”.
As usually defined, the IC50 is the concentration needed to halve the response being measured. On to `O=C(Nc1ccccc1)c1cc([N+](=O)[O-])ccc1Cl` [GW9662, reference compound], for which the IC50 in [1] (human MSCs, data not shown) amounted to 1 µM; in data set [2] (human MSCs under adipogenic conditions, data not shown), 5.4 µM.
With `O=C(O)c1ccc(-c2nn(C(=O)c3ccccc3)c3ccccc23)cc1` [MRL-003], the IC50 on human RORγt LBD (read-out: IC50, inhibition of coactivator binding (cofactor peptide recruitment)) stood at 0.28 ± 0.117 µM. Besides, the “IL17a mRNA levels” value in [3] is given as “did not reduce”.
As to `O=C(O)c1ccc(-c2nn(C(=O)c3ccccc3C(F)(F)F)c3ccccc23)cc1` [MRL-058], the “IL17a mRNA levels” value in [3] is on record as “significantly reduced”.
By EC50 is commonly meant the midpoint of the concentration-response curve. In the case of `O=C(O)c1ccc(-c2nn(C(=O)c3c(Cl)cccc3C(F)(F)F)c3cccc(F)c23)c(F)c1` [MRL-299], the IC50 in data set [4] is 0.0094 ± 0.0052 µM; in data set [1] (Homo sapiens), approximately 30 µM; at GR it was 18.5 µM; on MR, 20 µM; on PR it was more than 30 µM; against ERa it was more than 30 µM. Further, the IC50 on ERb is 10.8 µM; on FXR it was 13.6 µM; against PXR, more than 30 µM; against TRa it was 4.49 µM; against TRb it was 5.73 µM; on VDR, more than 30 µM. For the same compound, the IC50 against CAR1 was 16.7 µM; at LXRa, 23.2 µM; on LXRb, 21.5 µM; against RARb, 12.3 µM; against RARg it was 3.11 µM; on RXRa it was 7.42 µM. Besides, the IC50 on RXRb is 28 µM; on PPARa, 19.1 µM; against PPARd, 28 µM; on PPARg it was 0.517 µM; in data set [2] (Homo sapiens, Mesenchymal stem cells) it was approximately 50 µM; at AR it was 12 µM. Moreover, the EC50 at GR, on MR, on PR, on AhR, at ERa and on ERb was more than 30 µM throughout. The EC50 on FXR was more than 30 µM; at PXR, 4.62 µM; at TRa, more than 30 µM; on TRb, more than 30 µM; at VDR, more than 30 µM; at CAR2 it was more than 30 µM. Also, the EC50 was more than 30 µM on CAR3; more than 30 µM at LXRa; more than 30 µM on LXRb; more than 30 µM on RARa; more than 30 µM at RARb; 0.364 µM on RARg. Further, the EC50 was more than 30 µM at RXRa; more than 30 µM on RXRb; more than 30 µM at RXRg; more than 30 µM on PPARa; more than 30 µM on PPARd; 0.686 µM on PPARg. On AR, this compound displayed an EC50 of more than 30 µM. Further, the “agonist maximum, % of rifampicin max” value on PXR (PXR, relative to rifampicin control) is 63%. The “agonist maximum, % of ATRA max” value on RARg (RARg, relative to ATRA control) stood at 20%. In data set [5], the “induction of CD36 gene expression” value was “no induction”. For the same compound, the “induction of FABP4 gene expression” value in data set [5] is recorded as “no induction”.
On to `O=C(O)c1ccc(-c2nn(C(=O)c3c(Cl)cccc3C(F)(F)F)c3ccccc23)cc1` [MRL-871], for which, in data set [4], the IC50 came to 0.0396 ± 0.018 µM. Moreover, the “IL17a mRNA levels” value in [3] is “significantly reduced”.
`CN(CCOc1ccc(CC2SC(=O)NC2=O)cc1)c1ccccn1` (stereo not drawn) [Rosiglitazone, rosiglitazone, reference compound]: in [5], the “induction of CD36 gene expression” value is 3 fold and the “induction of FABP4 gene expression” value was 2 fold.
